Two compounds from patent US7368567B2, “Arylsulfonyl benzodioxanes, benzoxazines and benzothiazines as 5-HT6 antagonists” (Roche Palo Alto LLC, priority 2004, dated 2008) can be followed below.

Data set [1] addresses T1, recombinant human 5-HT6 receptor (Homo sapiens, UniProt P50406).
T1 construct: expressed in transfected cells
The experiment in a line: Radioligand binding, [3H]LSD competition in HEK293 cell membranes. Conditions: [3H]LSD displacement, 37° C., pH 7.4, read-out: pKi for the 5-HT6 receptor (converted). The protocol:
(§1) The binding activity of compounds of this invention in vitro was determined as follows. Duplicate determinations of 5-HT6 ligand affinity were made by competing for binding of [^3H]LSD in cell membranes derived from HEK293 cells stably expressing recombinant human 5-HT6 receptor. Duplicate determinations of 5-HT2A ligand affinity were made by competing for binding of [^3H]Ketanserin (3-(2-(4-(4-fluorobenzoyl)piperidinol)ethyl)-2,4(1H,3H)-quinazolinedione) in cell membranes derived from CHO—K1 cells stably expressing recombinant human 5-HT2A receptor. Membranes were prepared from HEK 293 cell lines by the method described by Monsma et al., Molecular Pharmacology, Vol. 43 pp. 320-327 (1993), and from CHO—K1 cell lines as described by Bonhaus et al., Br J Pharmacol. June;1 15(4):622-8 (1995).
(§2) For estimation of affinity at the 5-HT6 receptor, all determinations were made in assay buffer containing 50 mM Tris-HCl, 10 mM MgSO4, 0.5 mM EDTA, 1 mM ascorbic acid, pH 7.4 at 37° C., in a 250 microliter reaction volume. […]
(§3) Assay tubes containing [^3H] […] LSD or [^3H]Ketanserin were determined as radioactive counts per minute using Packard TopCount.
(§4) Displacement of [^3H]LSD or [^3H]Ketanserin from the binding sites was quantified by fitting concentration-binding data to a 4-parameter logistic equation: […]

Data set [2] addresses T2, recombinant human 5-HT2A receptor (Homo sapiens, UniProt P28223).
T2 construct: expressed in transfected cells
The experiment in a line: Radioligand binding, [3H]Ketanserin competition in CHO-K1 cell membranes. As to conditions: [3H]Ketanserin displacement, 32° C., pH 7.4, read-out: pKi for the 5-HT2A receptor (converted). The protocol:
as §1, §2, §3, §4

SMILES strings stand for the structures.

T2 sequence (P28223 whole entry): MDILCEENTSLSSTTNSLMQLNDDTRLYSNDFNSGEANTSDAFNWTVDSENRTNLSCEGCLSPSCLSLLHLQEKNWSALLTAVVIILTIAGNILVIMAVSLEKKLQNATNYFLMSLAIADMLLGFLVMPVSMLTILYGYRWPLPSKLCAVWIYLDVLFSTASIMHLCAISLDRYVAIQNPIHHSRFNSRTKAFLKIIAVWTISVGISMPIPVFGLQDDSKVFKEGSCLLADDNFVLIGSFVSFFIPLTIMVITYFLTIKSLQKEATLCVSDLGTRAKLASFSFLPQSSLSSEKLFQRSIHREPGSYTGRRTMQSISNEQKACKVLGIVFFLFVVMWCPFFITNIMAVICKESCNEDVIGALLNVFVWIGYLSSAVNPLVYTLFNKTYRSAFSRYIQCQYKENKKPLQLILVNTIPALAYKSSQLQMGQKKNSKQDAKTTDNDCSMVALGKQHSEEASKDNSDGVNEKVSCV
T1 sequence (P50406 whole entry): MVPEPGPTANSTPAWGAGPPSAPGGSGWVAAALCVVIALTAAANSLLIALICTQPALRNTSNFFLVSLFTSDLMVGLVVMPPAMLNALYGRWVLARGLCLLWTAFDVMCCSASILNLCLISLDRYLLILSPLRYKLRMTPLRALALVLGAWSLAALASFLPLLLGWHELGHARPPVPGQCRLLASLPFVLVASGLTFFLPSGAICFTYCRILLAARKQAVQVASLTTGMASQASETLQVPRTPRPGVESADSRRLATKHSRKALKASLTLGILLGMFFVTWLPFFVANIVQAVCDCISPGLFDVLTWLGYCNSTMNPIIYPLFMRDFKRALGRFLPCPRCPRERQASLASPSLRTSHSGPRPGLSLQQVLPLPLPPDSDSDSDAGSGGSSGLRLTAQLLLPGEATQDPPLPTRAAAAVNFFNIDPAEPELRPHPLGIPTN

In the case of `CNC[C@@H]1COc2ccc(S(=O)(=O)c3ccccc3)cc2O1` [(7-Benzenesulfonyl-2,3-dihydro-benzo[1,4]dioxin-2-(R)-ylmethyl)-methyl-amine], the Ki in data set [1] is ~0.166 nM.

`CNC[C@H]1COc2ccc(S(=O)(=O)c3cccc(F)c3)cc2O1` [[7-(3-Fluoro-benzenesulfonyl)-2,3-dihydro-benzo[1,4]dioxin-2-(S)-ylmethyl]-methyl-amine] returned a melting point of 245.8 to 246.4 °C. For the same compound, the Ki in data set [2] was ~18.2 nM.

The term melting point denotes the temperature, or range, at which the solid turns liquid.
